Consider three compounds from EP4737449A1 (Changchun Genescience Pharmaceutical Co., Ltd., priority 2023, dated 2025).

Each structure is given as a SMILES string.

Data set [1] in a line: Caco-2 cell permeability test. Format: in vitro ADME. The note with it: human, Caco-2, 10 µM compound; for Papp A→B at 120 min, 10 µM / Papp B→A at 120 min, 10 µM / efflux ratio at 120 min, 10 µM: pH 7.4; for efflux ratio at 120 min, 10 µM: read-out: Efflux rate. As for the experimental part:
• 1) Cell culture: The resuscitated Caco-2 cells were cultured in DMEM culture solution containing 10% FBS, 1% Penicillin-Streptomycin Liquid (100X) and 1% NEAA in an incubator at 37 °C with 5% CO2. The culture medium was replaced every 2-3 days and subculture was carried out when the cell confluence reached about 80%. • 2) Preparation of transport buffer: Transport buffer (pH 7.4) was prepared by adding 5 mL of 1M HEPES to 500 mL of HBSS (with or without BSA) to a final concentration of 10 mM HEPES (with or without BSA). • 3) Before the start of the transport experiment (day 14-28), the culture medium was taken out from the cell culture plate, the plate was washed twice with preheated HBSS buffer (10 mM HEPES, pH 7.4), and 100 µL of HBSS buffer was added into each well. After incubation at 37°C for 30 min, the TEER values were measured by a cell resistance meter (Millicell-ERS2) to confirm the integrity and compactness of the monolayer cells. • 4) The HBSS buffer was discarded, the upper plate containing the cell monolayer membrane was transferred to the corresponding receiving plate, the test compound solution or buffer was added to the top (A side) and the basal side (B side), respectively, the cell plate was placed in the corresponding 96-well receiving plate, and grouping was carried out according to Table 6. The prepared positive control drug, test compound or HBSS (with or without BSA) buffer were added to the A side or B side of the Transwell cell plate filter membrane, and the cell plate was incubated at 37°C. Table 6. Compound grouping scheme
• 1) After incubation for 5 min, a sample was taken from the A and B administration sides, 8 µL each side, and added into 72 µL of transport buffer (diluted 10 times) to serve as T0 of the initial administration solution. • 2) After incubation for 120 min, the samples from both ends of the Transwell cell plate filter membrane were collected, and 80 µL of sample solution was taken from the receiving side to serve as the sample at the receiving side after transport, and 8 µL of sample was taken from the administration side and added into 72 µL of transport buffer to serve as the sample at the administration side after transport. • 3) After collecting the samples from both sides, the plate was gently tapped to discard the remaining solution in the cell plate, the cell plate was rinsed with the transport buffer, 100 µL of acetonitrile solution containing internal standard working solution was added to each well to lyse the cells, the system was pipetted up and down to well mix it, and then 80 µL of cell lysate from each well was measured by pipetting to serve as the sample after cell lysis. • 4) After collecting all samples in the transport system (T0 sample, receiving side sample, and donor side sample), 160 µL of IS/ACN solution was added to each well, 80 µL of IS/ACN solution was added to the collected lysate sample, and then the sample was sealed. • 5) The sample plate was shaken for 10 min, and stored at -20°C before LC-MS/MS analysis. • 6) A standard curve was plotted, and then 8 µL of standard curve solution was taken and mixed with 72 µL of transport buffer and 160 µL of IS/ACN to serve as the standard curve sample. • 7) All the above samples were centrifuged at 6000 RPM for 10 min, 100 µL of supernatant was taken, 100 µL of H2O was added, and the mixture was fully mixed, and analyzed by LC-MS/MS.

The subject of data set [2] is NUGC-3 human gastric cancer subcutaneous xenograft. Put plainly: Efficacy in NUGC-3 human gastric cancer subcutaneous xenograft model. It counts as in vivo, BALB/c Nude mouse. The note with it: PO, 19 days. As for the experimental part: NUGC-3 cells were cultured in RPMI-1640 medium containing 10% FBS. NUGC-3 cells in the exponential growth phase were collected, the total amount of cells required was calculated, the cells were re-suspended in PBS to a suitable concentration and then an equal volume of Matrigel was added for subcutaneous tumor seeding in BALB/c Nude mice. The concentration of the cell suspension was 5x10^6/0.1 mL.
0.1 mL (5×10^6 NUGC-3 cells) of cell suspension (PBS : Matrigel = 1:1, V/V) was seeded subcutaneously on the right back of each mouse. When the tumor grew to have an average volume of 128.4 mm^3, group-based drug administration began (vehicle: 0.2% HPC + 0.5% Tween 80), and the average tumor volume of the enrolled animals was 146.1 mm^3.
Table 11 Route, dose and regimen of administration in the subcutaneous xenograft model

A further data set deals with BXPC-3 cells. Put plainly: BXPC-3 3D cell proliferation assay (methylcellulose, CTG, 7 days). It counts as cell-based. The conditions noted are these: Homo sapiens, 168 h, drug treatment for 7 days. As for the experimental part:
1 g of methylcellulose was weighed and placed into a glass ware and autoclaved. After cooling, 100 mL of the corresponding culture medium was added, the mixture was mixed vigorously, and stirred on a 4°C magnetic stirrer; the mixture was completely dissolved after 48 h and stored at 4°C.
The cells were resuscitated with the corresponding culture medium, and were maintained to grow to the logarithmic growth phase. The cell suspension was collected and centrifuged at 1000 rpm for 5 min. After centrifugation was completed, the supernatant was removed and the cells were re-suspended with an appropriate amount of culture medium. […]
After adding 10 µL of culture medium containing the vehicle to each well, the CTG plate was read. […] The cell plate was placed at room temperature for 10 min to stabilize the luminescent signal, and the luminescent value was read using EnVision. […]
The CTG reagent was thawed and the cell plate was equilibrated to room temperature for 30 min. […] The cell plate was placed at room temperature for 10 min to stabilize the luminescent signal, and the luminescent value was read using EnVision.
Cell viability was calculated using the following formula: (Vsample- VBlank) /(Vvehicle control- VBlank) ×100%. […] The S-shaped dose-survival curve was plotted and IC50 calculated by GraphPad Prism software using non-linear regression model.

What is called Papp A→B is how fast a substance crosses the layer from the apical side. Higher therefore signals fast passage. Usually Papp B→A stands for how fast a substance crosses the layer from the basolateral side. In data set [1] (120 min), `CN1CC[C@@H](Nc2cccc3c(CC(F)(F)F)c(C#CCNC(=O)c4cnn(C(C)(C)C)c4)nn23)[C@@H](F)C1` [Compound 001, 1-tert-butyl-N-[3-(7-{[(3S,4R)-3-fluoro-1-methylpiperidin-4-yl]amino}-3-(2,2,2-trifluoroethyl)pyrazolo[1,5-a]pyridin-2-yl)prop-2-yn-1-yl]-1H-pyrazole-4-carboxamide] returned a Papp A→B at 120 min, 10 µM of 4.39 ×10⁻⁶ cm/s and a Papp B→A at 120 min, 10 µM of 6.5 ×10⁻⁶ cm/s. Also, in data set [1], the efflux ratio at 120 min, 10 µM was determined as 1.48.
By IC50 is commonly meant the concentration at which inhibition is half-maximal. Consider `CN1CC[C@@H](Nc2cccc3c(CC(F)(F)F)c(C#CCNC(=O)c4cnn(C(C)(C)C)c4N)nn23)[C@@H](F)C1` [Compound 047], for which the “tumor volume inhibition rate TGI” value worked out at 68% in data set [2] (50 mpk, BID); 93% in data set [2] (100 mpk, BID); 103% in data set [2] (150 mpk, BID); 91% in data set [2] (150 mpk, QD). The compound further showed an IC50 with BXPC-3 cells of 180 nM. Further, the efflux ratio at 120 min, 10 µM in data set [1] turned out to be 1.51. In data set [1] (120 min), this compound showed a Papp A→B at 2 h of 5.18 ×10⁻⁶ cm/s. In data set [1] (120 min), this compound showed a Papp B→A at 2 h of 7.8 ×10⁻⁶ cm/s.
Turning to `CNC(=O)c1ccc(NCC#Cc2cc3c(N[C@@H]4CCN(C)C[C@@H]4F)cccc3n2CC(F)(F)F)c(OC)c1` [Control compound, reference compound], in data set [2] (50 mpk, QD), the “tumor volume inhibition rate TGI” value was 52%. In addition, in data set [2] (100 mpk, QD), the “tumor volume inhibition rate TGI” value was 77%. Also, in the data set with BXPC-3 cells, inhibition was half-maximal at 769 nM (IC50). In data set [1] (120 min), this compound showed a Papp A→B at 120 min, 10 µM of 4.68 ×10⁻⁶ cm/s and a basolateral-to-apical permeability (Papp B→A) at 120 min, 10 µM of 19.4 ×10⁻⁶ cm/s. In addition, the efflux ratio at 120 min, 10 µM in data set [1] came out at 4.16.
